The results in this text go back to patent US5102891A, “1-(substituted pyridinylamino)-1H-indol-5-yl substituted carbamates” (priority 1990, dated 1992).

Like-named read-outs stand apart in the source and are kept apart here.

Assay [1] deals with T1, Acetylcholinesterase (AChE) (Rattus norvegicus, UniProt P37136).
T1 construct: corpora striata dissected free, weighed and homogenized in 19 volumes; from tissue; host or cells: corpora striata of male Wistar rats, whole homogenate
Put plainly: biochemical. Conditions: rat striatum homogenate, 10 min preincubation at 37° C., pH 7.2, acetylthiocholine 5 mM final; read-out: Inhibitory Concentration Brain AChE. On the procedure:
Cholinesterases are found throughout the body, both in the brain and in serum. However, only brain acetylcholinesterase (AChE) distribution is correlated with central cholinergic innervation.
The method described below was used in this invention for assaying cholinesterase activity.
1. 0.05M Phosphate buffer, pH 7.2
(c) add (a) to (b) until pH reaches 7.2
4. A 2 mM stock solution of the test drug is made up in a suitable solvent and q.s. to volume with 0.5 mM DTNB (reagent 3). Drugs are serially diluted (1:10) such that the final concentration (in cuvette) is 10^-4 M and screened for activity. If active, IC50 values are determined from the inhibitory activity of subsequent concentrations.
Male Wistar rats are decapitated, brains rapidly removed, corpora striata dissected free, weighed and homogenized in 19 volumes (approximately 7 mg protein/ml) of 0.05M phosphate buffer, pH 7.2 using a Potter-Elvehjem homogenizer. […]
Enzyme activity is measured with the Beckman DU-50 spectrophotometer. […]
Blank values are determined for each run to control for non-enzymatic hydrolysis of substrate and these values are automatically subtracted by the kindata program available on kinetics soft-pac module. This program also calculates the rate of absorbance change for each cuvette. […]

The subject of assay [2] is Scopolamine Induced Memory Deficit. The format is in vivo, mice. On the procedure:
In this assay mice are tested for their ability to remember an unpleasant stimulus for a period of 24 hours. A mouse is placed in a chamber that contains a dark compartment; a strong incandescent light drives it to the dark compartment, where an electric shock is administered through metal plates on the floor. The animal is removed from the testing apparatus and tested again, 24 hours later, for the ability to remember the electric shock.
If scopolamine, an anticholinergic that is known to cause memory impairment, is administered before an animal's initial exposure to the test chamber, the animal re-enters the dark compartment shortly after being placed in the test chamber 24 hours later. This effect of scopolamine is blocked by an active test compound, resulting in a greater interval before re-entry into the dark compartment.
The results for an active compound are expressed as the percent of a group of animals in which the effect of scopolamine is blocked, as manifested by an increased interval between being placed in the test chamber and re-entering the dark compartment.

T1 sequence (P37136 32-614): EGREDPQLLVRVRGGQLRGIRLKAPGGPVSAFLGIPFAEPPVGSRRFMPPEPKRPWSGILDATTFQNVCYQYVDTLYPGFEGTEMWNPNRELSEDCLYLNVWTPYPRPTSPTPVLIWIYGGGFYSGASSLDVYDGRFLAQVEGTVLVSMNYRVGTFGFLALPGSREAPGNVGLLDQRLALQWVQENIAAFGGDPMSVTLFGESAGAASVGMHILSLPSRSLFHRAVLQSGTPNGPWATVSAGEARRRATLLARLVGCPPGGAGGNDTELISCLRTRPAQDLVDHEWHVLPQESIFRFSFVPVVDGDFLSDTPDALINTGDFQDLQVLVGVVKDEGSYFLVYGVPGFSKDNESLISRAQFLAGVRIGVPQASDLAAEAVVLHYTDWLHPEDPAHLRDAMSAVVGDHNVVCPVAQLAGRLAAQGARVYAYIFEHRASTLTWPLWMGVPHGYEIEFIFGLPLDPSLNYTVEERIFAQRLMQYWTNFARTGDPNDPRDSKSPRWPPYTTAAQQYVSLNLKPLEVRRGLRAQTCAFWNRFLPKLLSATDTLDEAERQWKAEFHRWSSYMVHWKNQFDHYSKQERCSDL

With `CCCN(c1ccncc1)n1ccc2cc(OC(=O)N[C@@H](C)c3ccccc3)ccc21` [(S)-(-)-1-(Propyl-4-pyridinylamino)-1H-indol-5-yl 1-phenylethylcarbamate], in assay [1], the IC50 turned out to be 30.2 µM.

Take `CC[C@@H]1C(=O)OC[C@@H]1Cc1cncn1C` [Pilocarpine]: the “% of Animals with Scopolamine Induced Memory Deficit Reversal” value (“% of Animals” below) in assay [2] (mice, 5.0 mg/kg of body weight, s.c., retest 24 hours) was 13%.

Take `CCCN(c1ccncc1)n1ccc2cc(OC(=O)NC)ccc21` [1-(Propyl-4-pyridinylamino)-1H-indol-5-yl methylcarbamate]: the IC50 in assay [1] amounted to 0.0023 µM. The “% of Animals” value in assay [2] (mice, 0.35 mg/kg of body weight, s.c., retest 24 hours) worked out at 21%.

Regarding `Nc1c2c(nc3ccccc13)CCCC2` [Tacrine], the “% of Animals” value in assay [2] (mouse, in vivo, sc, 0.63 mg/kg) turned out to be 13%.
